Laboratory results reported in patent publication US4140707A, “Malonato platinum anti-tumor compounds” (priority 1977, dated 1979).

Tested on: Sarcoma 180
Assay: Antitumor activity, solid Sarcoma 180 (Table I), T/C tumor weight ratio, sacrifice day 10
Type: in vivo, female Swiss white mice
Protocol: The compounds of the invention were tested for anti-tumor activity using our standard screening tumor, solid sarcoma 180 tumer in female Swiss white mice, following standard protocols for this testing as set by the National Cancer Institute. (Cancer Chemotherapy Rep., 25(1962)).
For these tests an S 180 tumor taken from a sacrificed mouse was disected free of superfluous tissue and cut under sterile conditions into approximately 10 milligram size pieces. These tissue pieces were then implanted by trocar in the left axillary region, subcutaneously, in new mice. The mice were, on the average, approximately four weeks old and weighed 18-20 grams. Taking day 0 as the day of implant, the animals were sacrificed on day 10. The tumors were excised and weighed and the ratio of the weights of the tumors in mice in the treated animals to the control set of animals was obtained. This ratio, multiplied by 100, is given as the T/C ratio in Table I.
For the first set of tests the coordination compound was freshly dissolved in sterile distilled water and injected intraperitoneally on day 1 into each of the test mice. The volume of the injection was usually 1/2 ml. In some cases, in order to get an active dose into the animal where the chemical was not soluble in this amount of solvent, a fine dispersion was prepared of the dose needed for the test. Thus, some of our test results were obtained on animals where a slurry of the compound was injected. These are so noted in Table I below. In addition, for some of the compounds, there was injected about 1 ml of solution, either in one single injection, or in 2 injections given a few hours apart of 1/2 ml each. These injections were initially given in 4 different dose levels for each new compound with 6 mice in each dose level. The tests covered a dose range from a low ineffective dose, to an upper dose level which produced some deaths within the time period of the experiment.

[1] = 30 mg/kg, single i.p. day 1, solution in H2O
[2] = 40 mg/kg, single i.p. day 1, solution in H2O
[3] = 50 mg/kg, single i.p. day 1, solution in H2O
[4] = 60 mg/kg, single i.p. day 1, solution in H2O
[5] = 70 mg/kg, single i.p. day 1, solution in H2O
[6] = 80 mg/kg, single i.p. day 1, solution in H2O
[7] = 45 mg/kg, single i.p. day 1, vehicle not noted
[8] = 60 mg/kg, single i.p. day 1, vehicle not noted
[9] = 75 mg/kg, single i.p. day 1, vehicle not noted
[10] = 90 mg/kg, single i.p. day 1, vehicle not noted
[11] = 20 mg/kg, single i.p. day 1, vehicle not noted
[12] = 40 mg/kg, single i.p. day 1, vehicle not noted
[13] = 80 mg/kg, single i.p. day 1, vehicle not noted
[14] = 100 mg/kg, single i.p. day 1, vehicle not noted
[15] = 120 mg/kg, single i.p. day 1, vehicle not noted
[16] = 160 mg/kg, single i.p. day 1, vehicle not noted
[17] = 140 mg/kg, single i.p. day 1, vehicle not noted
[18] = 180 mg/kg, single i.p. day 1, vehicle not noted
[19] = 110 mg/kg, single i.p. day 1, vehicle not noted
[20] = 90 mg/kg, single i.p. day 1, solution in H2O

`CCC(C(=O)[O-])C(=O)[O-].N.N.[Pt+2]` [ethylmalontodiammineplatinum(II)] was tested, and the “No. of Deaths” value [1] was 0, the T/C [1] was 57 and the “No. of Deaths” value [2] was 0. For the same molecule, the T/C [2] was 43, the “No. of Deaths” value [3] was 0 and the T/C [3] was 47. For the same molecule, the “No. of Deaths” value [4] was 0, the T/C [4] was 39 and the “No. of Deaths” value [5] was 0. For the same molecule, the T/C [5] was 17, the “No. of Deaths” value [6] was 0 and the T/C [6] was 16.

With `CC(N)CN.O=C([O-])CC(=O)[O-].[Pt+2]` [malonato-1,2 propylenediamineplatinum (II)] the “No. of Deaths” value [7] was 0, the T/C [7] was 50 and the “No. of Deaths” value [8] was 1. For the same molecule, the T/C [8] was 9, the “No. of Deaths” value [9] was 3 and the T/C [9] was 16. For the same molecule, the “No. of Deaths” value [10] was 5.

For `NCCCN.O=C([O-])CC(=O)[O-].[Pt+2]` [malonato-1,3 propylenediamineplatinum (II)], the “No. of Deaths” value [11] was 0, the T/C [11] was 69 and the “No. of Deaths” value [12] was 0. For the same molecule, the T/C [12] was 79, the “No. of Deaths” value [8] was 0 and the T/C [8] was 21. The “No. of Deaths” value [13] was 1 and the T/C [13] was 35.

For `N.N.O=C([O-])C1(C(=O)[O-])CCC1.[Pt+4]` [1,1-cyclobutanedicarboxylate diammineplatinum (II)], the “No. of Deaths” value [11] was 0, the T/C [11] was 71 and the “No. of Deaths” value [12] was 0. For the same molecule, the T/C [12] was 60, the “No. of Deaths” value [8] was 0 and the T/C [8] was 38. For the same molecule, the “No. of Deaths” value [13] was 0, the T/C [13] was 42 and the “No. of Deaths” value [14] was 0. The T/C [14] was 69, the “No. of Deaths” value [15] was 0 and the T/C [15] was 18. For the same molecule, the “No. of Deaths” value [16] was 4 and the T/C [16] was 62.

For `CN.CN.O=C([O-])CC(=O)[O-].[Pt+2]` [malonatobis(methylamine) platinum (II)], the “No. of Deaths” value [13] was 0, the T/C [13] was 58 and the “No. of Deaths” value [14] was 0. The T/C [14] was 53, the “No. of Deaths” value [15] was 0 and the T/C [15] was 28. For the same molecule, the “No. of Deaths” value [17] was 0, the T/C [17] was 25 and the “No. of Deaths” value [16] was 1. The T/C [16] was 17, the “No. of Deaths” value [18] was 1 and the T/C [18] was 19.

For `CC1C(=O)[O][Pt]([NH2])([NH2])[O]C1=O` [Methylmalonatodiammineplatinum(II)], the “No. of Deaths” value [1] was 0, the T/C [1] was 39 and the “No. of Deaths” value [2] was 0. For the same molecule, the T/C [2] was 26, the “No. of Deaths” value [3] was 0 and the T/C [3] was 35. The “No. of Deaths” value [4] was 0, the T/C [4] was 6 and the “No. of Deaths” value [5] was 3/6. For the same molecule, the T/C [5] was 124 and the “No. of Deaths” value [6] was 6/6.

`CCC1C(=O)[O][Pt]2([NH]CC[NH]2)[O]C1=O` [ethylmalonatoethylenediamineplatinum (II)] was tested, and the “No. of Deaths” value [12] was 0, the T/C [12] was 72 and the “No. of Deaths” value [8] was 0. For the same molecule, the T/C [8] was 81, the “No. of Deaths” value [13] was 0 and the T/C [13] was 79. For the same molecule, the “No. of Deaths” value [10] was 0, the T/C [10] was 47 and the “No. of Deaths” value [14] was 1. For the same molecule, the T/C [14] was 55, the “No. of Deaths” value [19] was 0 and the T/C [19] was 41. For the same molecule, the “No. of Deaths” value [15] was 0 and the T/C [15] was 58.

In the case of `CC1C(=O)[O][Pt]2([NH]CC[NH]2)[O]C1=O` [methylmalonatoethylenediamineplatinum (II)], the “No. of Deaths” value [1] is reported as 0, the T/C [1] is reported as 78 and the “No. of Deaths” value [2] is reported as 0. For the same molecule, the T/C [2] was 80, the “No. of Deaths” value [3] was 0 and the T/C [3] was 51. The “No. of Deaths” value [4] was 0, the T/C [4] was 26 and the “No. of Deaths” value [5] was 1. For the same molecule, the T/C [5] was 20, the “No. of Deaths” value [20] was 1 and the T/C [20] was 4.
